Measured values: PubChem BioAssay AID1963844 (Molecular Pharmacology Branch, DTP, NCI, 2024)
pIC50: −log10 of the molar value.

Test system: 422866-222-R5-J1-PDC complex spheroid viability
Assay: Anticancer human tumor 422866-222-R5-J1-PDC patient-derived pancreatic adenocarcinoma cell line growth inhibition [POLQ]
Details: for pIC50: curve of first compound; for viability, T/C: stronger effect = lower value
Summary of the method: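 PDC + HUVEC + MSC complex spheroids; POLQ inhibitors ± partner drugs; top conc. at/near clinical Cmax, else 10 microM (SN-38 1 microM), half-log dilutions; 37 degrees C, 5% CO2.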

[1] = second compound 0.0316 µM, first compound 0.0316 µM
[2] = second compound 0.0316 µM, first compound 0.1 µM
[3] = second compound 0.0316 µM, first compound 0.316 µM
[4] = second compound 0.0316 µM, first compound 1 µM
[5] = second compound 0.0316 µM, first compound 3.16 µM
[6] = second compound 0.0316 µM, first compound 10 µM
[7] = second compound 0.1 µM, first compound 0.0316 µM
[8] = second compound 0.1 µM, first compound 0.1 µM
[9] = second compound 0.1 µM, first compound 0.316 µM
[10] = second compound 0.1 µM, first compound 1 µM
[11] = second compound 0.1 µM, first compound 3.16 µM
[12] = second compound 0.1 µM, first compound 10 µM
[13] = second compound 0.316 µM, first compound 0.0316 µM
[14] = second compound 0.316 µM, first compound 0.1 µM
[15] = second compound 0.316 µM, first compound 0.316 µM
[16] = second compound 0.316 µM, first compound 1 µM
[17] = second compound 0.316 µM, first compound 3.16 µM
[18] = second compound 0.316 µM, first compound 10 µM
[19] = second compound 1 µM, first compound 0.0316 µM
[20] = second compound 1 µM, first compound 0.1 µM
[21] = second compound 1 µM, first compound 0.316 µM
[22] = second compound 1 µM, first compound 1 µM
[23] = second compound 1 µM, first compound 3.16 µM
[24] = second compound 1 µM, first compound 10 µM
[25] = second compound 3.16 µM, first compound 0.0316 µM
[26] = second compound 3.16 µM, first compound 0.1 µM
[27] = second compound 3.16 µM, first compound 0.316 µM
[28] = second compound 3.16 µM, first compound 1 µM
[29] = second compound 3.16 µM, first compound 3.16 µM
[30] = second compound 3.16 µM, first compound 10 µM
[31] = second compound 10 µM, first compound 0.0316 µM
[32] = second compound 10 µM, first compound 0.1 µM
[33] = second compound 10 µM, first compound 0.316 µM
[34] = second compound 10 µM, first compound 1 µM
[35] = second compound 10 µM, first compound 3.16 µM
[36] = second compound 10 µM, first compound 10 µM
[37] = second compound 0.0316 µM, first compound 0.00316 µM
[38] = second compound 0.0316 µM, first compound 0.01 µM
[39] = second compound 0.1 µM, first compound 0.00316 µM
[40] = second compound 0.1 µM, first compound 0.01 µM
[41] = second compound 0.316 µM, first compound 0.00316 µM
[42] = second compound 0.316 µM, first compound 0.01 µM
[43] = second compound 1 µM, first compound 0.00316 µM
[44] = second compound 1 µM, first compound 0.01 µM
[45] = second compound 3.16 µM, first compound 0.00316 µM
[46] = second compound 3.16 µM, first compound 0.01 µM
[47] = second compound 10 µM, first compound 0.00316 µM
[48] = second compound 10 µM, first compound 0.01 µM
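Also: spheroids exposed to compounds for one week before readout.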
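For viability, T/C in this document: percent of DMSO vehicle wells luminescence so 100% = untreated viability.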

O=c1[nH]cc(F)c(=O)[nH]1 + COC1C(OC(N)=O)C(O)C(Oc2ccc3c(O)c(NC(=O)c4ccc(O)c(CC=C(C)C)c4)c(=O)oc3c2C)OC1(C)C
pIC50 (second compound 0.0316 µM): < 5.00
pIC50 (second compound 0.1 µM): < 5.00
pIC50 (second compound 0.316 µM): < 5.00
pIC50 (second compound 1 µM): < 5.00
pIC50 (second compound 3.16 µM): < 5.00
pIC50 (second compound 10 µM): < 5.00
viability, T/C [1]: 103%
viability, T/C [2]: 99.7%
viability, T/C [3]: 102%
viability, T/C [4]: 98.9%
viability, T/C [5]: 82.7%
viability, T/C [6]: 78.5%
viability, T/C [7]: 109%
viability, T/C [8]: 116%
viability, T/C [9]: 99.7%
viability, T/C [10]: 82.9%
viability, T/C [11]: 82.5%
viability, T/C [12]: 79%
viability, T/C [13]: 109%
viability, T/C [14]: 105%
viability, T/C [15]: 93.5%
viability, T/C [16]: 92.1%
viability, T/C [17]: 84.8%
viability, T/C [18]: 84%
viability, T/C [19]: 107%
viability, T/C [20]: 108%
viability, T/C [21]: 93.2%
viability, T/C [22]: 90.5%
viability, T/C [23]: 72.2%
viability, T/C [24]: 80.8%
viability, T/C [25]: 98%
viability, T/C [26]: 94.1%
viability, T/C [27]: 102%
viability, T/C [28]: 89.2%
viability, T/C [29]: 81.8%
viability, T/C [30]: 82.5%
viability, T/C [31]: 103%
viability, T/C [32]: 98%
viability, T/C [33]: 99.9%
viability, T/C [34]: 79.9%
viability, T/C [35]: 77.7%
viability, T/C [36]: 81.4%

Cn1ncnc1[C@H]1c2n[nH]c(=O)c3cc(F)cc(c23)N[C@@H]1c1ccc(F)cc1 + Cc1cccc(N(C)C(=O)C2C(O)CCN2c2nc(C)cc(C(F)(F)F)c2C#N)c1
pIC50 (second compound 0.0316 µM): < 7.00
pIC50 (second compound 0.1 µM): < 7.00
pIC50 (second compound 0.316 µM): < 7.00
pIC50 (second compound 1 µM): < 7.00
pIC50 (second compound 3.16 µM): < 7.00
pIC50 (second compound 10 µM): < 7.00
viability, T/C (second compound 0.0316 µM, first compound 0.000316 µM): 93.3%
viability, T/C (second compound 0.0316 µM, first compound 0.001 µM): 97.3%
viability, T/C [37]: 93.7%
viability, T/C [38]: 89%
viability, T/C [1]: 76.5%
viability, T/C [2]: 82.1%
viability, T/C (second compound 0.1 µM, first compound 0.000316 µM): 116%
viability, T/C (second compound 0.1 µM, first compound 0.001 µM): 95.2%
viability, T/C [39]: 90%
viability, T/C [40]: 93.2%
viability, T/C [7]: 81.8%
viability, T/C [8]: 65.9%
viability, T/C (second compound 0.316 µM, first compound 0.000316 µM): 108%
viability, T/C (second compound 0.316 µM, first compound 0.001 µM): 97.3%
viability, T/C [41]: 90.6%
viability, T/C [42]: 88.4%
viability, T/C [13]: 81.4%
viability, T/C [14]: 83.1%
viability, T/C (second compound 1 µM, first compound 0.000316 µM): 93.9%
viability, T/C (second compound 1 µM, first compound 0.001 µM): 90.2%
viability, T/C [43]: 93.6%
viability, T/C [44]: 89%
viability, T/C [19]: 79.3%
viability, T/C [20]: 77.2%
viability, T/C (second compound 3.16 µM, first compound 0.000316 µM): 95.6%
viability, T/C (second compound 3.16 µM, first compound 0.001 µM): 101%
viability, T/C [45]: 94.2%
viability, T/C [46]: 77.3%
viability, T/C [25]: 87.4%
viability, T/C [26]: 91.9%
viability, T/C (second compound 10 µM, first compound 0.000316 µM): 95.1%
viability, T/C (second compound 10 µM, first compound 0.001 µM): 97.7%
viability, T/C [47]: 102%
viability, T/C [48]: 72.5%
viability, T/C [31]: 82.9%
viability, T/C [32]: 83.2%

CC(C)n1c(=O)n(C)c2cnc3cc(F)c(-c4ccc(OCCCN5CCCCC5)nc4)cc3c21 + Nc1ccc(C#CCN(C(=O)Cc2ncc(C(F)(F)F)cc2C(F)(F)F)c2ccc(F)cc2)nn1
pIC50 (second compound 0.0316 µM): < 5.00
pIC50 (second compound 0.1 µM): < 5.00
pIC50 (second compound 0.316 µM): < 5.00
pIC50 (second compound 1 µM): < 5.00
pIC50 (second compound 3.16 µM): < 5.00
pIC50 (second compound 10 µM): 5.01
viability, T/C [1]: 116%
viability, T/C [2]: 116%
viability, T/C [3]: 90.3%
viability, T/C [4]: 99.3%
viability, T/C [5]: 90.7%
viability, T/C [6]: 62.2%
viability, T/C [7]: 88.6%
viability, T/C [8]: 102%
viability, T/C [9]: 97.5%
viability, T/C [10]: 88.3%
viability, T/C [11]: 82.8%
viability, T/C [12]: 66.2%
viability, T/C [13]: 114%
viability, T/C [14]: 109%
viability, T/C [15]: 95.1%
viability, T/C [16]: 105%
viability, T/C [17]: 71.8%
viability, T/C [18]: 53.3%
viability, T/C [19]: 107%
viability, T/C [20]: 110%
viability, T/C [21]: 108%
viability, T/C [22]: 91.2%
viability, T/C [23]: 85.2%
viability, T/C [24]: 59.1%
viability, T/C [25]: 100%
viability, T/C [26]: 105%
viability, T/C [27]: 114%
viability, T/C [28]: 76.4%
viability, T/C [29]: 71.3%
viability, T/C [30]: 60.8%
viability, T/C [31]: 96.8%
viability, T/C [32]: 110%
viability, T/C [33]: 87.9%
viability, T/C [34]: 92.5%
viability, T/C [35]: 94.4%
viability, T/C [36]: 49.5%

COc1cccc(OCCCN)c1-c1cc(Nc2cnc(C#N)cn2)n[nH]1 + Cc1cccc(N(C)C(=O)C2C(O)CCN2c2nc(C)cc(C(F)(F)F)c2C#N)c1
pIC50 (second compound 0.0316 µM): 8.26
pIC50 (second compound 0.1 µM): 8.17
pIC50 (second compound 0.316 µM): 8.18
pIC50 (second compound 1 µM): 8.16
pIC50 (second compound 3.16 µM): 8.29
pIC50 (second compound 10 µM): > 8.50
viability, T/C [37]: 65.4%
viability, T/C [38]: 30.4%
viability, T/C [1]: 30.1%
viability, T/C [2]: 26.9%
viability, T/C [3]: 36.6%
viability, T/C [4]: 43.4%
viability, T/C [39]: 72.7%
viability, T/C [40]: 37.7%
viability, T/C [7]: 31.4%
viability, T/C [8]: 27.3%
viability, T/C [9]: 45.7%
viability, T/C [10]: 45.6%
viability, T/C [41]: 74.4%
viability, T/C [42]: 32.5%
viability, T/C [13]: 35%
viability, T/C [14]: 30.1%
viability, T/C [15]: 51.8%
viability, T/C [16]: 32.2%
viability, T/C [43]: 77.7%
viability, T/C [44]: 37.8%
viability, T/C [19]: 28.8%
viability, T/C [20]: 32.5%
viability, T/C [21]: 25.9%
viability, T/C [22]: 43.8%
viability, T/C [45]: 58.3%
viability, T/C [46]: 39.3%
viability, T/C [25]: 30.4%
viability, T/C [26]: 35.7%
viability, T/C [27]: 29.8%
viability, T/C [28]: 50.1%
viability, T/C [47]: 68.1%
viability, T/C [48]: 30.3%
viability, T/C [31]: 36.4%
viability, T/C [32]: 30.5%
viability, T/C [33]: 35.9%
viability, T/C [34]: 54.9%
